Experiments:
Format in all cases: cell-based, Pseudomonas aeruginosa
PA14 biofilms [1] = assay: Crystal violet analysis of PA14 biofilms, absorption at 620 nm; settings: added to wild type WT PA14, LB medium, 96-Well-Plate, after 43 hours, compared to WT alone
Procedure: FIG. 5—Diagram of PA 14 biofilms determined after 43 hours with crystal violet by monitoring absorption at 620 nm;
FIG. 5 is a diagram of various types of PA14 biofilms measured by use of the 96-Well-Plate after 43 hours by use of the fluid culture medium LB with crystal violet analysis by monitoring absorption at 620 nm.

PA14 biofilms [2] = assay: Impedance analysis (xCELLigence cell index) of PA14 biofilm growth rate / biofilm formation
Procedure: The biomass Pseudomonas aeruginosa had been measured as an exemplary biomass. Eventually also other strains can be analyzed. The 96 E-Plate had been used for a measuring time of 43 hours. The fluid culture medium LB had been introduced into the receptacles together with wild type (WT) PA14, ΔpelA deletion mutant or ΔpqsA, respectively.
A significant linear reduction of the negative cell index occurs after about 35 hours and more preferably in the time frame of the 37 hours to 42 hours. Within this time frame of 37 hours to 42 hours, the directional cell index RK=(cell index[t2]−cell index[t1])/(t2−t1) is decreasing. Thus, for such a short time frame, the value of the cell index change provides the directional cell index RK, which corresponds to the linear relation between the capacitance and the reactance having the general form of a straight line. Optionally, and in particular in case of evaluating longer time frames, the growth rate of biofilm can be calculated as function of the natural logarithm of the cell index, e.g. by the formula RK=ln(cell index[t2]−cell index[t1])/(t2−t1).
The impedance method has also been used to study the effect of antibiotics on biofilm formation of P. aeruginosa PA14. The results of the impact of ciprofloxacin (A), tobramycin (B), and meropenem (C) on biofilm formation of PA14 are shown in FIGS. 8 to 10. As examples, the antibiotics ciprofloxacin (FIGS. 8a)-c)), tobramycin (FIGS. 9a)-c)) and meropenem (FIGS. 10a)-c)) have been tested. All three antibiotics changed the impedance curves in a concentration-dependent manner, indicating effects on biofilm formation.
The effect on impedance was quantified by three parameters at varying antibiotic concentrations:
The first parameter is the time of onset of a linear decrease of the cell index, (FIGS. 8a), 9a) and 10a)).
The second parameter is the duration of a linear decrease of the cell index. This duration was determined by a linear trendline that was fitted to the data with an r^2 value of 0.97 or higher. In the graphs of FIGS. 8a), 9a) and 10a), the black vertical bars represent the time period over which the biofilm formation rate was measured to be steady, based on a straight line assigned with an r^2 of at least 0.97 (n=3 or 4).
The third parameter was the cell index slope during that time period (FIGS. 8b), 9b) and 10b)). These graphs show the concentration dependency of the biofilm formation expressed in the slope/h of the cell index (n=3 or 4).

PA14 = assay: Planktonic growth curves of PA14 by OD600 (control experiment)
From the text: OD600 indicates the absorbance, or optical density, of a sample measured at a wavelength of 600 nm and indicates the concentration of cells in a liquid.

SMILES: N=C(N)NCCC[C@H](N)C(=O)O [L-Arg, arginine]
- growth of biofilm (crystal violet) (PA14 biofilms [1]): inhibits the growth of biofilm
- directional cell index RK (PA14 biofilms [2]; 0.4% or 0.8% L-Arg added to wild type WT, evaluation time 37 to 42 hours): about −0.004 /h
- reduction of the biofilm growth rate (PA14 biofilms [2]; 0.4% or 0.8% L-Arg, PA14 WT, LB, evaluation time 37 to 42 hours): about ½

SMILES: O=C(O)c1cn(C2CC2)c2cc(N3CCNCC3)c(F)cc2c1=O [ciprofloxacin]
- impedance curve reflecting biofilm formation (PA14 biofilms [2]; 0.13 μg/mL): clearly changed the impedance curve
- steady biofilm formation (PA14 biofilms [2]; 0.25 μg/mL): not observed anymore
- cell index slope (biofilm formation) (PA14 biofilms [2]; at increasing concentrations): shallower decline
- planktonic growth (PA14; 0.13 μg/mL): not impaired
- planktonic growth (PA14; 0.25 μg/mL): still possible

SMILES: C[C@@H](O)[C@H]1C(=O)N2C(C(=O)O)=C(S[C@@H]3CN[C@H](C(=O)N(C)C)C3)[C@H](C)[C@H]12 [meropenem]
- induction of biofilm formation (cell index slope) (PA14 biofilms [2]; 0.5 μg/ml): this effect vanished
- cell index slope (biofilm formation) (PA14 biofilms [2]; concentrations between 0.063 and 0.25 μg/ml): induced biofilm formation

SMILES: NC[C@H]1O[C@H](O[C@H]2[C@H](O)[C@@H](O[C@H]3O[C@H](CO)[C@@H](O)[C@H](N)[C@H]3O)[C@H](N)C[C@@H]2N)[C@H](N)C[C@@H]1O [tobramycin]
- cell index slope (biofilm formation) (PA14 biofilms [2]; at increasing concentrations): shallower decline

From US10520488B2, “Method and measuring device for determination of the growth rate of biofilm” (Helmholtz-Zentrum fuer Infektionsforschung GmbH, priority 2014, dated 2019)
